pEC50, pIC50: −log10 of the molar value. Like-named read-outs stand apart in the source and are kept apart here.
Columns and labels:
murine T lymphocytes = assay: Induction of T lymphocyte apoptosis (PI staining, FACS); type: cell-based, mouse
Method: (1) The Tuf-tainer (non-adherent to cells) was pretreated with culture medium for 2 h;
(2) As that described in proliferation assay, Balb/c mice were sacrificed and their spleens were removed aseptically. A single cell suspension was prepared and resuspended in RPMI-1640 media at 5×10^6/ml.
(3) Cells were added to 5 μg/ml ConA or medium;
(4) The cells were cultured in 5% CO2 incubator at 37° C. for 24-96 h;
(5) Cells were collected and washed with PBS, centrifugated at 400 g for 10 min at 4° C.;
(6) The collected cells were shaken 10 s violently and 1 ml ice-cold 70% ethanol was added dropwise, capped and fixed overnight at […].;
(7) The cells were centrifuged at 3000 rpm for 5 min and the ethanol was removed; Incubated cells with 1 ml PI staining buffer at room temperature more than 30 min; FACs analysis was performed with 24 h.

[1] = tested on: SGC-7901 (human gastric adenocarcinoma cell); assay: Tumor cell proliferation, SGC-7901; type: cell-based; details: read-out: Inhibitory effect on tumor cell proliferation IC50
B lymphocyte = assay: LPS induced B-lymphocyte proliferation ([3H]thymidine); type: cell-based, mouse
Method: Mice were sacrificed by cervical dislocation, and spleens were collected under sterile conditions then teased through a nylon mesh. Erythrocytes were lysed. Cells were washed and resuspended at 5×10^6/ml in RPMI-1640 media containing 10% FBS. For one 96 well plate assay, 100 pt of cells, 50 μl of sample and 50 μl of ConA/LPS were added into each well with the final volume 200 μl. The control wells were set up with 50 μl of RPMI-1640 media instead of ConA/LPS.
Plates were incubated for 48 h (ConA) or 60 h (LPS), respectively, at 37° C., 5% CO2 in a humidified incubator. In the last 8 h of incubation, 25 μl (1.9×10^10 Bq) of [^3H]thymidine was added. After plates were incubated for 48 h, the plates (ConA) were stored at −20° C., then after another 12 h, the plates (LPS) were stored at −20° C.
At the end of incubation, pulsed cells were harvested on a glass filter using a cell harvester ([…]96®, TOMTEC) and allowed to dry. Incorporation of radioactive thymidine was determined by using liquid Scintillation and Luminescence Counters (MicroBeta Trilux®, PerkinElmer).

[2] = tested on: HL-60 (human myeloblastic); assay: Tumor cell proliferation, HL-60; type: cell-based; details: read-out: Inhibitory effect on tumor cell proliferation IC50
mice [3] = assay: Acute toxicity (LD50) test in mice, intraperitoneal injection; type: in vivo, mouse; details: single intraperitoneal injection
Method: Mice were single administered with LLDT-8 by intraperitoneal injection, and observed for clinical signs of toxicity immediately and the following 14 days. Necropsy was performed on all animals that died and on all survivors at the end of the 2-week study. Death was seen from the next day after treatment and reached a peak at the 2-4 day. All gross pathological changes should be recorded for each animal. There was no gender difference in survival.
LLDT-8 is much less toxic than its parent compound, […].

[4] = tested on: anti-SRBC specific antibodies production by B lymphocytes; type: in vivo, mouse; details: ICR mice
[5] = tested on: collagen-induced arthritis; assay: Collagen-induced arthritis in DBA/1 mice; type: in vivo, mouse
[6] = tested on: MCF-7 (human breast cancer cell); assay: Tumor cell proliferation, MCF-7; type: cell-based; details: read-out: Inhibitory effect on tumor cell proliferation IC50
[7] = tested on: MKN-28 (human gastric cancer); assay: Tumor cell proliferation, MKN-28; type: cell-based; details: read-out: Inhibitory effect on tumor cell proliferation IC50
[8] = tested on: P-388 (murine lymphoma cell); assay: Tumor cell proliferation, P-388; type: cell-based; details: read-out: Inhibitory effect on tumor cell proliferation IC50
mice [9] = assay: Acute toxicity (LD50) test in mice, oral; type: in vivo, mouse; details: single oral administration
Method: Mice were single administered with LLDT-8 by oral, and observed for clinical signs of toxicity immediately and the following 14 days. Necropsy was performed on all animals that died and on all survivors at the end of the 2-week study. Death was seen from the next day after treatment and reached a peak at the 2-3 day. […] There was no gender difference in survival.

**Q.** For `CC(C)[C@]12O[C@H]1[C@@H]1O[C@]13[C@]1(O[C@H]1C[C@@]1(O)C4=C(CC[C@]31C)C(=O)OC4)[C@@H]2O` [LLDT-8, (5R)-5-hydroxytriptolide], which “CD4+ and CD8+ T lymphocytes percentage” value (murine T lymphocytes) is on record?
**A.** The value was “reduced CD4^+ and CD8^+ T lymphocytes percentage”.

**Q.** What about the “apoptosis of murine T lymphocytes” value (murine T lymphocytes; at concentration below or near the IC50 for lymphocyte cytotoxicity) of the same molecule?
**A.** Its value is “induced the apoptosis of murine T lymphocytes”.

**Q.** And the pIC50 [1]?
**A.** Its pIC50 is 7.37.

**Q.** What about the “ED50 for inhibiting B lymphocyte proliferation induced by LPS” value (B lymphocyte; 60 h) of the same molecule?
**A.** The value was 0.0598 µg/mL.

**Q.** What about the pEC50 (B lymphocyte; 60 h, read-out: ED50 for inhibiting B lymphocyte proliferation induced by LPS) of the same molecule?
**A.** Its pEC50 is 6.80.

**Q.** And the “more potent inhibitory activity than CsA (B lymphocyte proliferation)” value (B lymphocyte; compared with CsA)?
**A.** Its value is “about 4.3 fold”.

**Q.** And the pIC50 [2]?
**A.** Its pIC50 is 7.09.

**Q.** What about the “LD50 95% confidence limits” value (mice [3]; mice) of the same molecule?
**A.** Its value is 7.7 to 11.3 mg/kg.

**Q.** And the LD50 (mice [3]; mice, 14 days, Bliss' method)?
**A.** Its LD50 is 9.3 mg/kg.

**Q.** And the “pathological changes in tissues by gross necropsy in survivors at day 15” value (mice [3])?
**A.** Its value is “No significant pathological changes”.

**Q.** What about the “QHS OD value” ([4]; Table 11, i.p. 4 times, dosage 0.04 mg/kg, control 0.208) of the same molecule?
**A.** The value was 0.175.

**Q.** What about the C3 ([4]; Table 11, i.p. 4 times, dosage 0.04 mg/kg, control 16.8) of the same molecule?
**A.** Its C3 is 19.5 μg/10 μl.

**Q.** What about the Body weight ([4]; Table 11, i.p. 4 times, dosage 0.04 mg/kg, control 23.5) of the same molecule?
**A.** Its Body weight is 23.0 g.

**Q.** And the Thymus ([4]; Table 11, i.p. 4 times, dosage 0.04 mg/kg, control 39.6)?
**A.** The Thymus was 32.1 mg.

**Q.** And the Spleen ([4]; Table 11, i.p. 4 times, dosage 0.04 mg/kg, control 66.4)?
**A.** Its Spleen is 74.8 mg/10 g.

**Q.** What about the “Total IgG” value ([4]; Table 11, i.p. 4 times, dosage 0.04 mg/kg, control 185.5) of the same molecule?
**A.** The value was 176.6 μg/10 μl.

**Q.** And the “QHS OD value” ([4]; Table 11, i.p. 4 times, dosage 0.2 mg/kg, control 0.208)?
**A.** Its value is 0.162.

**Q.** What about the C3 ([4]; Table 11, i.p. 4 times, dosage 0.2 mg/kg, control 16.8) of the same molecule?
**A.** Its C3 is 19.7 μg/10 μl.

**Q.** And the Body weight ([4]; Table 11, i.p. 4 times, dosage 0.2 mg/kg, control 23.5)?
**A.** The Body weight was 23.1 g.

**Q.** What about the Thymus ([4]; Table 11, i.p. 4 times, dosage 0.2 mg/kg, control 39.6) of the same molecule?
**A.** The Thymus was 36.9 mg.

**Q.** What about the Spleen ([4]; Table 11, i.p. 4 times, dosage 0.2 mg/kg, control 66.4) of the same molecule?
**A.** The Spleen was 76.3 mg/10 g.

**Q.** And the “Total IgG” value ([4]; Table 11, i.p. 4 times, dosage 0.2 mg/kg, control 185.5)?
**A.** The value was 165.9 μg/10 μl.

**Q.** What about the “QHS OD value” ([4]; Table 11, i.p. 4 times, dosage 1 mg/kg, control 0.208) of the same molecule?
**A.** The value was 0.158.

**Q.** And the C3 ([4]; Table 11, i.p. 4 times, dosage 1 mg/kg, control 16.8)?
**A.** The C3 was 19.4 μg/10 μl.

**Q.** And the Body weight ([4]; Table 11, i.p. 4 times, dosage 1 mg/kg, control 23.5)?
**A.** The Body weight was 22.3 g.

**Q.** What about the Thymus ([4]; Table 11, i.p. 4 times, dosage 1 mg/kg, control 39.6) of the same molecule?
**A.** The Thymus was 36.6 mg.

**Q.** And the Spleen ([4]; Table 11, i.p. 4 times, dosage 1 mg/kg, control 66.4)?
**A.** Its Spleen is 59.6 mg/10 g.

**Q.** And the “Total IgG” value ([4]; Table 11, i.p. 4 times, dosage 1 mg/kg, control 185.5)?
**A.** Its value is 182.9 μg/10 μl.

**Q.** And the “QHS OD value” ([4]; Table 12, p.o. 4 times, dosage 0.04 mg/kg, control 0.38)?
**A.** The value was 0.23.

**Q.** What about the C3 ([4]; Table 12, p.o. 4 times, dosage 0.04 mg/kg, control 7.9) of the same molecule?
**A.** Its C3 is 6.7 μg/10 μl.

**Q.** And the Body weight ([4]; Table 12, p.o. 4 times, dosage 0.04 mg/kg, control 23.4)?
**A.** The Body weight was 23.0 g.

**Q.** What about the Thymus ([4]; Table 12, p.o. 4 times, dosage 0.04 mg/kg, control 28.8) of the same molecule?
**A.** Its Thymus is 28.7 mg.

**Q.** And the Spleen ([4]; Table 12, p.o. 4 times, dosage 0.04 mg/kg, control 55.7)?
**A.** Its Spleen is 69.0 mg/10 g.

**Q.** What about the “Total IgG” value ([4]; Table 12, p.o. 4 times, dosage 0.04 mg/kg, control 117) of the same molecule?
**A.** The value was 123 μg/10 μl.

**Q.** And the “QHS OD value” ([4]; Table 12, p.o. 4 times, dosage 0.2 mg/kg, control 0.38)?
**A.** Its value is 0.34.

**Q.** And the C3 ([4]; Table 12, p.o. 4 times, dosage 0.2 mg/kg, control 7.9)?
**A.** Its C3 is 7.9 μg/10 μl.

**Q.** What about the Body weight ([4]; Table 12, p.o. 4 times, dosage 0.2 mg/kg, control 23.4) of the same molecule?
**A.** The Body weight was 24.0 g.

**Q.** What about the Thymus ([4]; Table 12, p.o. 4 times, dosage 0.2 mg/kg, control 28.8) of the same molecule?
**A.** The Thymus was 36.6 mg.

**Q.** And the Spleen ([4]; Table 12, p.o. 4 times, dosage 0.2 mg/kg, control 55.7)?
**A.** Its Spleen is 61.6 mg/10 g.

**Q.** And the “Total IgG” value ([4]; Table 12, p.o. 4 times, dosage 0.2 mg/kg, control 117)?
**A.** Its value is 116 μg/10 μl.

**Q.** And the “QHS OD value” ([4]; Table 12, p.o. 4 times, dosage 1 mg/kg, control 0.38)?
**A.** The value was 0.24.

**Q.** What about the C3 ([4]; Table 12, p.o. 4 times, dosage 1 mg/kg, control 7.9) of the same molecule?
**A.** Its C3 is 6.8 μg/10 μl.

**Q.** What about the Body weight ([4]; Table 12, p.o. 4 times, dosage 1 mg/kg, control 23.4) of the same molecule?
**A.** Its Body weight is 23.0 g.

**Q.** What about the Thymus ([4]; Table 12, p.o. 4 times, dosage 1 mg/kg, control 28.8) of the same molecule?
**A.** The Thymus was 32.5 mg.

**Q.** What about the Spleen ([4]; Table 12, p.o. 4 times, dosage 1 mg/kg, control 55.7) of the same molecule?
**A.** The Spleen was 63.7 mg/10 g.

**Q.** What about the “Total IgG” value ([4]; Table 12, p.o. 4 times, dosage 1 mg/kg, control 117) of the same molecule?
**A.** Its value is 118 μg/10 μl.

**Q.** And the “suppressive effect on CIA at lower doses” value ([5]; 0.2 and 0.04 mg/Kg/d, dose-dependent)?
**A.** The value was “Suppressive effect was also observed”.

**Q.** And the “Anti-collagen specific antibody levels” value ([5]; compared with untreated CIA mice)?
**A.** The value was “reduced dose-dependently”.

**Q.** What about the “severity and incidence of CIA” value ([5]; i.p. 1 mg/Kg/d, compared with untreated CIA mice) of the same molecule?
**A.** Its value is “effectively reduced severity and incidence of CIA”.

**Q.** And the pIC50 [6]?
**A.** Its pIC50 is 6.46.

**Q.** What about the pIC50 [7] of the same molecule?
**A.** Its pIC50 is 6.41.

**Q.** What about the pIC50 [8] of the same molecule?
**A.** Its pIC50 is 7.10.

**Q.** What about the “LD50 95% confidence limits” value (mice [9]; mice) of the same molecule?
**A.** Its value is 5.4 to 8.4 mg/kg.

**Q.** What about the LD50 (mice [9]; mice, 14 days, Bliss' method) of the same molecule?
**A.** Its LD50 is 6.8 mg/kg.

**Q.** And the “gross pathology (hemorrhage)” value (mice [9])?
**A.** The value was “Obvious hemorrhage was seen at pylorus, duodenum, jejunum and ileum”.

**Q.** And the “pathological changes in tissues by gross necropsy in survivors at day 15” value (mice [9])?
**A.** The value was “No significant pathological changes”.

Source: patent publication US7626044B2, “Triptolide derivatives and their uses” (priority 2002, dated 2009)
